These are literature values, as cited in US20220184007A1, “FORMULATIONS” (Synchroneuron Inc., priority 2019, published 2022).

SMILES strings stand for the structures.

The test system of data set [1] is psychogenic nonepileptic seizures. The conditions noted are these: flexible-dose, 12 weeks, 33 subjects, statistically underpowered.
For data set [2] the test system is unchanged. The conditions noted are these: flexible-dose, open-label, uncontrolled study.

Take `CN[C@H]1CC[C@@H](c2ccc(Cl)c(Cl)c2)c2ccccc21` [sertraline]: the “biweekly event frequency change” value in data set [1] is on record as “no difference between groups”. Regarding `COc1ccc(C(CN(C)C)C2(O)CCCCC2)cc1` (centres unmarked) [venlafaxine], the event reduction result in data set [2] was “significant event reduction”.
